These results are taken from US20240316132A1 (priority 2023, published 2024).

Series [1] in a line: Thermal stability (decarboxylation of CBDA to CBD). It is filed as physicochemical. Particulars: saturated solution of CBDA in Met10u.
A further series is described as follows: Solubility in water. The class given is physicochemical.
A short description of series [2]: Solubility in DMDA / Met10u high-KB amide surfactant. It is filed as physicochemical.
Series [3] in a line: Solubility in mineral oil. Particulars: oil or lipid, under certain conditions. The class given is physicochemical.
For series [4] the following is noted: cited from earlier work.

Converted amounts (≈) assume the structure as drawn.

For orientation: solubility means the dissolved amount per volume that the medium holds. Broadly, the pKa is the pH at which an ionisable group is half protonated.

Consider `C=C(C)[C@@H]1CCC(C)=C[C@H]1c1c(O)cc(CCCCC)c(C(=O)O)c1O` [CBDA, Δ(9)-tetrahydrocannabidiolic acid], for which the “temperature at which CBDA begins to lose its carboxylic moiety (decarboxylation) and become CBD” value in series [1] is reported as “at least 130 C”. Also, the “solubility of CBDA in water” value in the series “Solubility in water” (temperature of 4 degrees Celsius or lower, pH 4 or lower) is recorded as “below 20 micrograms per milliliter”; in “Solubility in water” (temperature of 70 degrees Celsius or higher, pH of 10 or higher) it was “over 20 milligrams per milliliter”. For the same compound, the solubility was more than 1000 mg/mL in series [2] (DMDA (high-KB amide surfactant), organic solvent or mixture, at 70 C) and approximately 6 mg/mL (≈ 16.7 mM) in series [3]. The “solubility of CBDA in Met10u” value is 1% in series [2] (at 0 C) and 100% in series [2] (at 60 C).

Regarding `CCCCC/C=C\C/C=C\CCCCCCCC(=O)O` [Linoleic acid, linoleic acid], the pKa in series [4] is given as 9.24.
